Data: paper PMC8346002 (International Journal of Molecular Sciences, 2021)
“Also recorded” adds a separate entry of the source. Like-named read-outs stand apart in the source and are kept apart here.

What was measured:
[1] = molecular target: T1, cAMP receptor protein (CRP) (Escherichia coli, UniProt P0ACJ8); format: binding; details: CRP 2 µM, 25 °C, 50 mM MOPS pH 7.5, excitation 280 nm, ΔF(area) 334-348 nm; read-out: KD for nucleotide ligands on CRP
T1 construct: inferred from pET21a(+) and Ni-NTA/imidazole purification); made in house; host or cells: E. coli BL21 (DE3), pET21a(+)
Method: Figure 1 Binding of ppGpp to CRP determined by fluorescence spectroscopy. (a) The fluorescence Spectra of CRP in the presence of ppGpp. Following excitation at 280 nm, the emission spectra of CRP (2 µM) were recorded at 25 °C. (b) The fluorescence change (ΔF(area)) against ppGpp concentrations. Instead of using the fluorescence change at a fixed wavelength, the area below the spectra between 334 and 348 nm was used, and the area decrease (ΔF(area)) upon addition of ppGpp was utilized to calculate the extent of fluorescence quenching.
(§1) Fluorescence intensities were measured at 25 °C using a F-4500 Fluorescence Spectrophotometer (Hitachi corporation). H-NS and CRP in 50 mM MOPS buffer, pH 7.5 were excited at 280 nm and the emission spectra were recorded from 290 to 400 nm under various ligand concentrations. The dissociation constant, KD, was calculated using the equation, ΔF/ΔFM = (([L] + [P] + KD) − (([L] + [P] + KD)^2 − 4·[L]·[P])^0.5)/2·[P], where ΔF, ΔFM, [P], and [L] represent fluorescence change, the maximal fluorescence change, total protein concentration, and total ligand concentration, respectively. The area below the spectra in the 15 nm ranges was used to calculate ΔF in this study. The corrections for the inner filter effect, introduced by the ligands, was performed using the formula, Fcor = F × 10^(P + ΔA)/2, where F and Fcor denote fluorescence intensity before and after the correction, whereas P and ΔA indicate the initial sample absorption at the excitation wavelength and the change in absorption introduced by ligands, respectively.

[2] = molecular target: T2, histone-like nucleoid structuring protein (H-NS) (Escherichia coli, UniProt P0ACF8); assay: biochemical; format: binding
T2 construct: inferred from Ni-NTA/imidazole purification; made in house; host or cells: E. coli BL21 (DE3); over-expressing strain obtained from Dr. Hyon E. Choy, originally from Dr. Bremer's laboratory
T2 sequence (P0ACF8 whole entry): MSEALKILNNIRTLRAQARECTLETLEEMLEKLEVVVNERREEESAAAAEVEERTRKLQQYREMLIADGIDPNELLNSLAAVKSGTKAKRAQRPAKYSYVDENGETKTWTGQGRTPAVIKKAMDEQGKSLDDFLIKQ
Method: Figure 3 Determination of the dissociation constant KD for ppGpp on H-NS by fluorescence spectrometry. (a) The emission spectra of H-NS in the presence of ppGpp. While H-NS (10µM) was excited at 280 nm, the emission spectra in the presence of various concentrations of ppGpp were recorded at 25 °C. (b) The difference in fluorescence (ΔF(area)) between 322 and 336 nm against ppGpp concentrations.
as §1

[3] = molecular target: the molecule itself; assay: SEC; size exclusion chromatography of isolated CRP, single peak; data not shown
[4] = H-NS 10 µM, 25 °C, 50 mM MOPS pH 7.5, excitation 280 nm, ΔF(area) 322-336 nm, read-out: KD for nucleotide ligands on H-NS

| Molecule | Kd [1] [µM] | Kd [2, 4] [µM] | other results |
| --- | --- | --- | --- |
| Nc1ncnc2c1ncn2[C@@H]1O[C@H](COP(=O)(O)OP(=O)(O)OP(=O)(O)O)[C@@H](O)[C@H]1O [ATP] | 33 ± 4 | – | KD for nucleotide ligands on H-NS ([2]; H-NS 10 µM, 25 °C, 50 mM MOPS pH 7.5, excitation 280 nm, ΔF(area) 322-336 nm): does not show a saturation curve; also recorded: did not show a saturation curve |
| Nc1nc2c(ncn2[C@@H]2O[C@H](COP(=O)(O)OP(=O)(O)O)[C@@H](O)[C@H]2O)c(=O)[nH]1 [GDP] | 62 ± 4 | 72 ± 6 | – |
| Nc1nc2c(ncn2[C@@H]2O[C@H](COP(=O)(O)OP(=O)(O)OP(=O)(O)O)[C@@H](O)[C@H]2O)c(=O)[nH]1 [GTP] | 35 ± 3 | 120 ± 25 | – |
| Nc1ncnc2c1ncn2[C@@H]1O[C@@H]2COP(=O)(O)O[C@H]2[C@H]1O [cAMP] | – | – | Kd [2]: 270 ± 40 µM |
| Nc1nc2c(ncn2[C@@H]2O[C@@H]3COP(=O)(O)O[C@H]3[C@H]2O)c(=O)[nH]1 [cGMP] | 17 ± 1 | – | – |
| cyclic AMP receptor protein (CRP) from Escherichia coli (natural protein, E. coli K12 MG1655, cAMP receptor protein (CRP) of E. coli K12 MG1655; the gene was amplified by PCR from genomic DNA and cloned into pET21a(+) with NdeI and XhoI; About 24 kDa on SDS-PAGE; it is inferred from the vector and the Ni-NTA column; also called CAP; source: E. coli BL21 (DE3), pET21a(+), purified (Ni-NTA, desalting column)) MVLGKPQTDPTLEWFLSHCHIHKYPSKSTLIHQGEKAETLYYIVKGSVAVLIKDEEGKEMILSYLNQGDFIGELGLFEEGQERSAWVRAKTACEVAEISYKKFRQLIQVNPDILMRLSAQMARRLQVTSEKVGNLAFLDVTGRIAQTLLNLAKQPDAMTHPDGMQIKITRQEIGQIVGCSRETVGRILKMLEDQNLISAHGKTIVVYGTR | – | – | stoichiometry N [3]: 2 |
